Consider five compounds from publication PMC6767236, “Selective Cannabinoid 2 Receptor Agonists as Potential Therapeutic Drugs for the Treatment of Endotoxin-Induced Uveitis” (Molecules, 2019).

The conditions of data set [1]: mouse, * previously published, cited from earlier work; for T1/2 / Tmax: oral, HU308 5 mg/kg, others 3 mg/kg; for F: oral 3 mg/kg.
The target in data set [2] is T1, mouse CB2R (Mus musculus, UniProt P47936). Nature of the data set: biochemical. It counts as binding. More on the design: bgal (beta-galactosidase fragment of the PathHunter system, named only in the cell line's name); host or cells: CHO-K1 (CHOK1mCB2_bgal). How it is done:
Membrane fractions were prepared from cultured CHOK1hCB1_bgal, CHOK1hCB2_bgal, and CHOK1mCB2_bgal cells (DiscoveRx, Fremont, CA, USA) as previously described. Protein concentration was determined using the Pierce bicinchoninic acid (BCA) protein assay (Rochford, IL, USA) as per the manufacturer’s instructions.
Radio ligand-binding assays were carried out as described by Souethoudt et al. (2018). Briefly, membranes from cells expressing human CB2R or CB1R or mouse CB2R and the radioligand, [^3H]-CP55940 (Perkin Elmer, Basel, Switzerland) was used. […] Membrane aliquots containing 5 µg (CHOK1hCB1_bgal) or 1 µg (CHOK1hCB2_bgal) of membrane protein in 100 µL assay buffer (50 mMTris-HCl, 5 mM MgCl2, 0.1% bovine serum albumin (BSA), pH 7.4) were incubated at 30 °C for 1 h, in presence of 3.5 nM of [^3H]-CP55940 (CHOK1hCB1_bgal) or 1.5 nM [^3H]-CP55940 (CHOK1hCB2_bgal). The incubation was terminated by rapid filtration performed on glass microfibre (GF/C) filters (Whatman International, Maidstone, UK), presoaked for 30 min with 0.25% polyethyleneimine (PEI), and using a Brandel harvester (Brandel, Gaithersburg, MD, USA). Filter-bound radioactivity was determined by scintillation spectrometry using a Tri-Carb 2900 TR liquid scintillation counter (Perkin Elmer, Boston, MA, USA). For mouse experiments, spleens were collected as previously described and resuspended in 2 mM Tris-EDTA, 320 mM sucrose, 5 mM MgCl2 (pH 7.4). Tissue was homogenized with a Potter homogenizer and centrifuged three times at 1000× g (10 min). The supernatants were centrifuged at 18,000× g (30 min), and the pellets were resuspended in assay buffer (50 mM Tris-HCl, 2 mM Tris-EDTA, 3 mM MgCl2, pH 7.4). These membrane fractions were used in rapid filtration assays with 400 pM of [^3H]-CP55,940. In all receptor binding experiments, nonspecific binding was determined in the presence of 1 µM “cold” agonist.

The target in the next data set is T2, human CB1R (Homo sapiens, UniProt P21554).
T2 construct: host or cells: CHO

In data set [3] the target is T1, mouse CB2R. Nature of the data set: cAMP assay, mouse CB2R (mouse spleen homogenate). It counts as biochemical. How it is done: The effect of ligands on the forskolin-stimulated accumulation of cAMP was determined using the LANCE ULTRA cAMP kit as per the manufacturer’s instruction (Perkin-Elmer Life Sciences, Boston, MA, USA).
For mouse CB2R cAMP assays, mouse spleen was resuspended in 50 mM of Tris-HCl (pH 7.4), then homogenized with a Potter homogenizer and centrifuged at 1000× g for 10 min. The supernatants were incubated for 30 min with 1-methyl-3-isobutylxanthine (IBMX), then forskolin was added in the presence or absence of ligands. The supernatants were incubated for 30 min in ATP Regeneration Buffer (50 mM HEPES, pH 7.4, 10 mM phosphocreatine, 10 units/mL creatine phosphokinase, 10 μM GTP, 200 μM ATP, 10 mM MgCl2, 250 μM IBMX), and the reaction was stopped by adding lysis buffer. Time-resolved fluorescence was measured with a Victor V Multilabel counter (Perkin-Elmer Life Sciences, Boston, MA, USA).

The target of another data set is T3, human CB2R (Homo sapiens, UniProt P34972).
T3 construct: bgal (beta-galactosidase fragment of the PathHunter system, named only in the cell line's name); host or cells: CHO-K1 (CHOK1hCB2_bgal)
To be noted: cited from earlier work; for Ki: read-out: hCB2R: Ki.

Details of data set [4]: method as in earlier work. To be noted: * previously published, cited from earlier work.
[5] abbreviates: [3H]-CP55940 displacement, read-out: mouse CB2R: Ki.
Setting [6] is: * previously published; read-out: hCB1R: cAMP EC50; cited from earlier work.
Where [7] appears, read: read-out: mouse CB2R: cAMP EC50.
Where [8] appears, read: species ratio of binding affinity.
[9] abbreviates: [3H]-CP55940 displacement, * previously published.

Each structure is given as a SMILES string. Like-named read-outs stand apart in the source and are kept apart here.

One may read the Tmax as the time at which the peak concentration occurs. Broadly, the Ki is a dissociation constant, usually derived from enzyme kinetics or from competition with a known ligand. What is called EC50 is the midpoint of the concentration-response curve.

T3 sequence (P34972 whole entry, the tested form may be a part): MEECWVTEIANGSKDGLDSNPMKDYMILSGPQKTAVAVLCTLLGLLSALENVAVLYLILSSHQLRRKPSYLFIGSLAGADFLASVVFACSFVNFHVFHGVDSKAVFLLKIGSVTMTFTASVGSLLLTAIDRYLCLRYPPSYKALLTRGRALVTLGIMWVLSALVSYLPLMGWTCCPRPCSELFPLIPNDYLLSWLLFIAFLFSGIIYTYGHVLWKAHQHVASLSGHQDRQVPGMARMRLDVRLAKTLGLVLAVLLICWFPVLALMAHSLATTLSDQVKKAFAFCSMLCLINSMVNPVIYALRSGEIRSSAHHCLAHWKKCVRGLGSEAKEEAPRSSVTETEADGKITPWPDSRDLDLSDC
T2 sequence (P21554 whole entry): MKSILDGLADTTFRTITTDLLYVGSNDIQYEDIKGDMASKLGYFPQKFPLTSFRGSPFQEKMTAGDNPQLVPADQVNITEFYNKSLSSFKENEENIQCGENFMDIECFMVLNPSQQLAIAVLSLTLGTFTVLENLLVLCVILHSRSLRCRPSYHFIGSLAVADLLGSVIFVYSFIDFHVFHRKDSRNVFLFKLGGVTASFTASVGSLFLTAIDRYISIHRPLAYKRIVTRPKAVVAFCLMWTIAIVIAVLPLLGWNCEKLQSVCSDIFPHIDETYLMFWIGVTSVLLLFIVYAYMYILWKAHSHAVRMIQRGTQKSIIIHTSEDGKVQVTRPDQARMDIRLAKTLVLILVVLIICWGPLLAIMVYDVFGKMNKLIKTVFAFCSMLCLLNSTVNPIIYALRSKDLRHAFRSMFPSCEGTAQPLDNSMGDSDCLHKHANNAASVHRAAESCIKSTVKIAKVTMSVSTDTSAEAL
T1 sequence (P47936 whole entry, the tested form may be a part): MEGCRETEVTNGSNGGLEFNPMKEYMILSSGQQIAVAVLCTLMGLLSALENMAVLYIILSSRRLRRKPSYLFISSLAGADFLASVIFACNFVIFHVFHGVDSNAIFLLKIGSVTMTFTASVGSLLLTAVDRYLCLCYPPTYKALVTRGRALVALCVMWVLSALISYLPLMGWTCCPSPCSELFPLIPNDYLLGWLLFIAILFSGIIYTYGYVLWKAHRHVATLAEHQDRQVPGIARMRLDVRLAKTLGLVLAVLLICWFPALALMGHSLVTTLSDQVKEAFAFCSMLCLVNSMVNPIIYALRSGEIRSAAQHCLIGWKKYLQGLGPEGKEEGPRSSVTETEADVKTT

Turning to `CCCCCCC(C)(C)c1cc(OC)c([C@H]2C=C(CO)[C@H]3C[C@@H]2C3(C)C)c(OC)c1` [HU308, {(1S,4S,5S)-4-[2,6-Dimethoxy-4-(2-methyloctan-2-yl)phenyl]-6,6-dimethylbicyclo[3.1.1]hept-2-en-2-yl}methanol, reference compound], in data set [1], the T1/2 is 3.3 h and the Tmax is recorded as 0.5 h. Moreover, the Ki on mouse CB2R [2] is 223 nM. For the same compound, the EC50 at human CB1R (read-out: hCB1R: cAMP EC50; * previously published; cited from earlier work) is greater than 10000 nM. On mouse CB2R [3], a half-maximal effect (EC50) was put at 6 nM and the “mouse CB2R: cAMP efficacy” value came to 99%.

In the case of `CCCCCCC(C)(C)c1cc(OC)c(C2=C[C@H]3CC[C@]2(CO)C3(C)C)c(OC)c1` [HU910, {(1S,4R)-2-[2,6-dimethoxy-4-(2-methyloctan-2-yl)phenyl]-7,7-dimethylbicyclo[2.2.1]hept-2-en-1-yl}methanol, reference compound], in data set [1], the T1/2 is given as 5.2 h. The time to peak (Tmax) in data set [1] is 1 h. Besides, the “hCB2R Ki/mouse CB2R Ki” value on mouse CB2R [2] is on record as 0.2. The Ki on mouse CB2R [2] (setting [5]) was 276 nM; on human CB2R it was 43 nM. The results for the EC50 at human CB1R (setting [6]) and at mouse CB2R [3] (setting [7]) were greater than 10000 nM and 3 nM, respectively. Besides, at mouse CB2R [3], the “mouse CB2R: cAMP efficacy” value is 99%.

With `CNC(=O)[C@@H](NC(=O)c1cc(OCC2(C)COC2)c(C2CC2)cn1)C(C)(C)C` [RO6851228, 5-Cyclopropyl-N-[(2S)-3,3-dimethyl-1-(methylamino)-1-oxobutan-2-yl]-4-[(3-methyloxetan-3-yl)methoxy]pyridine-2-carboxamide], the “pKa (basic)” value in data set [4] is recorded as 3.3. Besides, in data set [1], the F is on record as 31%, the T1/2 is 1.17 h and the Tmax is reported as 0.25 h. On mouse CB2R [2] (setting [8]), the “hCB2R Ki/mouse CB2R Ki” value amounted to 45. Also, the Ki on human CB2R (setting [9]) is 45 nM. Besides, the “hCB1R Ki/hCB2R Ki” value at human CB2R (binding selectivity, * previously published) is on record as 147 *. For the same compound, the “hCB2R cAMP EC50/mouse CB2R cAMP EC50 ratio” value at mouse CB2R [3] was found to be 7.

For `Cc1nc([C@](C)(CC2CC2)NC(=O)c2cc(OCC(F)(F)F)c(C3CC3)cn2)no1` [RO6871085, 5-Cyclopropyl-N-[(2S)-1-cyclopropyl-2-(5-methyl-1,2,4-oxadiazol-3-yl)propan-2-yl]-4-(2,2,2-trifluoroethoxy)pyridine-2-carboxamide], in data set [4] (calculated), the “pKa (acidic, calculated)” value was 10.1 and the “pKa (basic, calculated)” value is recorded as 2.6. Moreover, in data set [1], the F is listed as 68%, the T1/2 is 8.42 h and the Tmax is 0.5 h. The “hCB2R Ki/mouse CB2R Ki” value at mouse CB2R [2] (setting [8]) worked out at 13. For the same compound, the EC50 at human CB1R (setting [6]) was 1450 nM. The “hCB1R: cAMP efficacy” value on human CB1R (second number of the cell; relative to 1 µM CP55940; * previously published; cited from earlier work) is reported as 38%. Besides, the Ki at human CB2R (setting [9]) is 76 nM.

For `CC(C)(C)c1nc(N2CC[C@H](O)C2)c2nnn(Cc3nnnn3C3CC3)c2n1` [RO6871304, (3S)-1-{5-tert-butyl-3-[(1-cyclopropyl-1H-tetrazol-5-yl)methyl]-3H-[1,2, 3]triazolo[4,5-d]pyrimidin-7-yl}pyrrolidin-3-ol], the Ki on mouse CB2R [2] (setting [5]) amounted to 34 nM. Moreover, the “hCB2R Ki/mouse CB2R Ki” value at mouse CB2R [2] (setting [8]) is on record as 0.5. Besides, the results for the EC50 at human CB1R (setting [6]) and at mouse CB2R [3] (setting [7]) were greater than 10000 nM and 0.5 nM, respectively. For the same compound, the “mouse CB2R: cAMP efficacy” value at mouse CB2R [3] came to 101%.
